According to patent publication US20210395248A1, “INHIBITORS OF HUMAN IMMUNODEFICIENCY VIRUS REPLICATION” (ViiV HEALTHCARE UK (NO.5) LIMITED, priority 2018, published 2021):

Legend:
[1] = tested on: recombinant NL4-3 virus (Renilla luciferase reporter) in MT-2 cells; test: HIV cell culture assay (antiviral activity, luciferase readout in infected MT-2 cells); assay type: cell-based; settings: NL43
Protocol: HIV cell culture assay—MT-2 cells, 293T cells and the proviral DNA clone of NL4-3 virus were obtained from the NIH AIDS Research and Reference Reagent Program. MT-2 cells were propagated in RPMI 1640 media supplemented with 10% heat inactivated fetal bovine serum (FBS), […]. The 293T cells were propagated in DMEM media supplemented with 10% heat inactivated FBS, […]. A recombinant NL4-3 proviral clone, in which a section of the nef gene was replaced with the Renilla luciferase gene, was used to make the reference virus used in these studies. The recombinant virus was prepared through transfection of the recombinant NL4-3 proviral clone into 293T cells using Transit-293 Transfection Reagent from Mirus Bio LLC (Madison, Wis.). Supernatent was harvested after 2-3 days and the amount of virus present was titered in MT-2 cells using luciferase enzyme activity as a marker by measuring luciferase enzyme activity. Luciferase was quantitated using the EnduRen Live Cell Substrate from Promega (Madison, Wis.). Antiviral activities of compounds toward the recombinant virus were quantified by measuring luciferase activity in MT-2 cells infected for 4-5 days with the recombinant virus in the presence of serial dilutions of the compound.
The 50% effective concentration (EC50) was calculated by using the exponential form of the median effect equation where (Fa)=1/[1+(EC50/drug conc.)m] (Johnson V A, Byington RT. Infectivity Assay. In Techniques in HIV Research, ed. Aldovini A, Walker B D. 71-76. New York: Stockton Press. 1990). The 50% inhibitory concentration (EC50) was calculated by using the exponential form of the median effect equation where percent inhibition=1/[1+(EC50/drug concentration)m], where m is a parameter that reflects the slope of the concentration-response curve.

[2] = Compound cytotoxicity, XTT-based colorimetric assay; assay type: cell-based; settings: human; uninfected MT2 cells, day 4, XTT; read-out: CC50
Protocol: Compound cytotoxicity and the corresponding CC50 values were determined using the same protocol as described in the antiviral assay except that uninfected cells were used. Cytotoxicity was assessed on day 4 in uninfected MT2 cells by using a XTT (2,3-bis [2-Methoxy-4-nitro-5-sulfophenyl]-2H-tetrazolium-5-carboxyanilide inner salt)-based colorimetric assay (Sigma-Aldrich, St Louis, Mo.).

SMILES	EC50 [1] [nM]	CC50 at 4 days [2] [nM]
Cn1nc(NS(C)(=O)=O)c2c(Cl)ccc(-n3c([C@H](Cc4cc(F)cc(F)c4)NC(=O)Cn4nc(C(F)F)c5c4C(F)(F)[C@@H]4C[C@H]54)nc4nc(NCCC(F)(F)F)ccc4c3=O)c21 (atropisomer, axis not shown; (P)) [Example 32, N—((S)-1-((3P)-3-(4-chloro-1-methyl-3-(methylsulfonamido)-1H-indazol-7-yl)-4-oxo-7-((3,3,3-trifluoropropyl)amino)-3,4-dihydropyrido[2,3-d]pyrimidin-2-yl)-2-(3,5-difluorophenyl)ethyl)-2-((3bS,4aR)-3-(difluoromethyl)-5,5-difluoro-3b,4,4a,5-tetrahydro-1H-cyclopropa[3,4]cyclopenta[1,2-c]pyrazol-1-yl)acetamide]	0.042	> 100
Cn1nc(NS(C)(=O)=O)c2c(Cl)ccc(-n3c([C@H](Cc4cc(F)cc(F)c4)NC(=O)Cn4nc(C(F)F)c5c4C(F)(F)[C@@H]4C[C@H]54)nc4nc(NCCC(F)F)ccc4c3=O)c21 (atropisomer, axis not shown; (P)) [Example 34, N—((S)-1-((3P)-3-(4-chloro-1-methyl-3-(methylsulfonamido)-1H-indazol-7-yl)-7-((3,3-difluoropropyl)amino)-4-oxo-3,4-dihydropyrido[2,3-d]pyrimidin-2-yl)-2-(3,5-difluorophenyl)ethyl)-2-((3bS,4aR)-3-(difluoromethyl)-5,5-difluoro-3b,4,4a,5-tetrahydro-1H-cyclopropa[3,4]cyclopenta[1,2-c]pyrazol-1-yl)acetamide]	0.055	> 100
Cn1nc(NS(C)(=O)=O)c2c(Cl)ccc(-n3c([C@H](Cc4cc(F)cc(F)c4)NC(=O)Cn4nc(C(F)F)c5c4C(F)(F)[C@@H]4C[C@H]54)nc4nc(NCCCF)ccc4c3=O)c21 (atropisomer, axis not shown; (P)) [Example 35, N—((S)-1-((3P)-3-(4-chloro-1-methyl-3-(methylsulfonamido)-1H-indazol-7-yl)-7-((3-fluoropropyl)amino)-4-oxo-3,4-dihydropyrido[2,3-d]pyrimidin-2-yl)-2-(3,5-difluorophenyl)ethyl)-2-((3bS,4aR)-3-(difluoromethyl)-5,5-difluoro-3b,4,4a,5-tetrahydro-1H-cyclopropa[3,4]cyclopenta[1,2-c]pyrazol-1-yl)acetamide]	0.11	> 100
C[C@@H]1CN(c2ccc3c(=O)n(-c4ccc(Cl)c5c(NS(C)(=O)=O)nn(C)c45)c([C@H](Cc4cc(F)cc(F)c4)NC(=O)Cn4nc(C(F)F)c5c4C(F)(F)[C@@H]4C[C@H]54)nc3n2)C[C@H](C)O1 (atropisomer, axis not shown; (aR)) [Example 1, N—((S)-1-(3-(4-chloro-1-methyl-3-(methylsulfonamido)-1H-indazol-7-yl)-7-((2S,6R)-2,6-dimethylmorpholino)-4-oxo-3,4-dihydropyrido[2,3-d]pyrimidin-2-yl)-2-(3,5-difluorophenyl)ethyl)-2-((3bS,4aR)-3-(difluoromethyl)-5,5-difluoro-3b,4,4a,5-tetrahydro-1H-cyclopropa[3,4]cyclopenta[1,2-c]pyrazol-1-yl)acetamide]	0.041	> 500
C[C@@H]1CN(c2ccc3c(=O)n(-c4ccc(Cl)c5c(NS(C)(=O)=O)nn(C)c45)c([C@H](Cc4cc(F)cc(F)c4)NC(=O)Cn4nc(C(F)(F)F)c5c4C(F)(F)[C@@H]4C[C@H]54)nc3n2)C[C@H](C)O1 (atropisomer, axis not shown; (aR)) [Example 2, N—((S)-1-(3-(4-chloro-1-methyl-3-(methylsulfonamido)-1H-indazol-7-yl)-7-((2S,6R)-2,6-dimethylmorpholino)-4-oxo-3,4-dihydropyrido[2,3-d]pyrimidin-2-yl)-2-(3,5-difluorophenyl)ethyl)-2-((3bS,4aR)-5,5-difluoro-3-(trifluoromethyl)-3b,4,4a,5-tetrahydro-1H-cyclopropa[3,4]cyclopenta[1,2-c]pyrazol-1-yl)acetamide]	0.036	> 500
C[C@@H]1CN(c2ccc3c(=O)n(-c4ccc(Cl)c5c(NS(C)(=O)=O)nn(CC(F)F)c45)c([C@H](Cc4cc(F)cc(F)c4)NC(=O)Cn4nc(C(F)F)c5c4C(F)(F)[C@@H]4C[C@H]54)nc3n2)C[C@H](C)O1 (atropisomer, axis not shown; (aR)) [Example 3, N—((S)-1-(3-(4-chloro-1-(2,2-difluoroethyl)-3-(methylsulfonamido)-1H-indazol-7-yl)-7-((2S,6R)-2,6-dimethylmorpholino)-4-oxo-3,4-dihydropyrido[2,3-d]pyrimidin-2-yl)-2-(3,5-difluorophenyl)ethyl)-2-((3bS,4aR)-3-(difluoromethyl)-5,5-difluoro-3b,4,4a,5-tetrahydro-1H-cyclopropa[3,4]cyclopenta[1,2-c]pyrazol-1-yl)acetamide]	0.032	> 500
C[C@@H]1CN(c2ccc3c(=O)n(-c4ccc(Cl)c5c(NS(C)(=O)=O)nn(CC(F)F)c45)c([C@H](Cc4cc(F)cc(F)c4)NC(=O)Cn4nc(C(F)(F)F)c5c4C(F)(F)[C@@H]4C[C@H]54)nc3n2)C[C@H](C)O1 (atropisomer, axis not shown; (aR)) [Example 4, N—((S)-1-(3-(4-chloro-1-(2,2-difluoroethyl)-3-(methylsulfonamido)-1H-indazol-7-yl)-7-((2S,6R)-2,6-dimethylmorpholino)-4-oxo-3,4-dihydropyrido[2,3-d]pyrimidin-2-yl)-2-(3,5-difluorophenyl)ethyl)-2-((3bS,4aR)-5,5-difluoro-3-(trifluoromethyl)-3b,4,4a,5-tetrahydro-1H-cyclopropa[3,4]cyclopenta[1,2-c]pyrazol-1-yl)acetamide]	0.031	> 500
C[C@@H]1CN(c2ccc3c(=O)n(-c4ccc(Cl)c5c(NS(=O)(=O)C6CC6)nn(CC(F)F)c45)c([C@H](Cc4cc(F)cc(F)c4)NC(=O)Cn4nc(C(F)F)c5c4C(F)(F)[C@@H]4C[C@H]54)nc3n2)C[C@H](C)O1 (atropisomer, axis not shown; (aR)) [Example 5, N—((S)-1-(3-(4-chloro-3-(cyclopropanesulfonamido)-1-(2,2-difluoroethyl)-1H-indazol-7-yl)-7-((2S,6R)-2,6-dimethylmorpholino)-4-oxo-3,4-dihydropyrido[2,3-d]pyrimidin-2-yl)-2-(3,5-difluorophenyl)ethyl)-2-((3bS,4aR)-3-(difluoromethyl)-5,5-difluoro-3b,4,4a,5-tetrahydro-1H-cyclopropa[3,4]cyclopenta[1,2-c]pyrazol-1-yl)acetamide]	0.03	> 500
C[C@@H]1CN(c2ccc3c(=O)n(-c4ccc(Cl)c5c(NS(=O)(=O)C6CC6)nn(CC(F)F)c45)c([C@H](Cc4cc(F)cc(F)c4)NC(=O)Cn4nc(C(F)(F)F)c5c4C(F)(F)[C@@H]4C[C@H]54)nc3n2)C[C@H](C)O1 (atropisomer, axis not shown; (aR)) [Example 6, N—((S)-1-(3-(4-chloro-3-(cyclopropanesulfonamido)-1-(2,2-difluoroethyl)-1H-indazol-7-yl)-7-((2S,6R)-2,6-dimethylmorpholino)-4-oxo-3,4-dihydropyrido[2,3-d]pyrimidin-2-yl)-2-(3,5-difluorophenyl)ethyl)-2-((3bS,4aR)-5,5-difluoro-3-(trifluoromethyl)-3b,4,4a,5-tetrahydro-1H-cyclopropa[3,4]cyclopenta[1,2-c]pyrazol-1-yl)acetamide]	0.04	> 500
